According to publication PMC8286831, “Identifying SARS-CoV-2 antiviral compounds by screening for small molecule inhibitors of nsp13 helicase” (Biochemical Journal, 2021):
“Also recorded” adds a separate entry of the source. Structures can show the parent of a compound that is named as a salt. Where two headings read alike, the source gives them in different places.

Assays:
[1] = molecular target: SARS-CoV-2 nsp13 helicase (Severe acute respiratory syndrome coronavirus 2, UniProt P0DTD1); assay: biochemical; type: biochemical; conditions: for nsp13 inhibition and detergent sensitivity: presence or absence of non-ionic detergent
[2] = molecular target: T1, SARS-CoV-2 RdRp holoenzyme (Severe acute respiratory syndrome coronavirus 2, UniProt P0DTD1); assay: FRET-based RdRp strand displacement assay; type: biochemical; conditions: for IC50 RdRp: RNA (RdRp substrate), 0.3 mM each NTP, 0.02% Tween-20 in RdRp assay buffer
T1 construct: (Sf nsp12-3F/7L8 preincubated with Sf 7H8 at a 1:3 ratio); 3F (3xFlag) (C); made in house; host or cells: 'Sf', read as Spodoptera frugiperda insect cells (my inference from the prefix); details are in Bertolin et al

SMILES | IC50 + 0.02% Tween-20 [1] | IC50 No detergent [1] | IC50 ([1]; IC50 + 0.02% Tween-20) [µM] | IC50 ([1]; IC50 No detergent) [µM] | also measured
NC(Cc1cc(O)c(O)cc1O)C(=O)O (racemic) [6-Hydroxy-DL-DOPA] | Quenching | Quenching | – | – | –
CN(C)CC[C@H](CSc1ccccc1)Nc1ccc(S(=O)(=O)NC(=O)c2ccc(N3CCC(C)(C)CC3)cc2)cc1[N+](=O)[O-] [A-385358] | – | – | – | – | IC50 RdRp [2]: did not inhibit RdRp; also recorded: No inhibition; IC50 nsp13 [1]: No inhibition; IC50 ([1]; read-out: IC50 + 0.02% Tween-20): > 250 µM; IC50 ([1]; read-out: IC50 No detergent): 3.3 µM
CN(C)CC[C@H](CSc1ccccc1)Nc1ccc(S(=O)(=O)NC(=O)c2ccc(N3CCN(Cc4ccccc4-c4ccc(Cl)cc4)CC3)cc2)cc1[N+](=O)[O-] [ABT-737] | – | – | > 250 | 1.2 | IC50 RdRp [2]: No inhibition; IC50 nsp13 ([1]; RNA (nsp13 substrate), 0.3 mM ATP, 0.02% Tween-20 in RdRp assay buffer): No inhibition
CCN(CC)C(=O)c1ccc(C2=CC3(CCNCC3)Oc3cccc(O)c32)cc1 [ADL5859] | No inhibition | – | – | > 250 | –
Nc1ncnc2c1ncn2[C@@H]1O[C@H](COP(=O)(O)OP(=O)(O)OP(=O)(O)O)[C@@H](O)[C@H]1O [ATP] | – | – | – | – | Km ([1]; 2 nM FH-nsp13, 200 nM DNA substrate, read-out: Km for ATP with the DNA substrate): 110 µM; Km ([1]; 3 nM FH-nsp13, 200 nM RNA substrate, read-out: Km for ATP with the RNA substrate): 130 µM
COc1ccc(-c2ccc3cc(C(=O)O)ccc3c2)cc1C12CC3CC(CC(C3)C1)C2 [Adapalene] | – | – | 9.9 | 3.7 | IC50 [2]: 20 µM; IC50 ([1]; IC50 0.02% Tween-20 + (presence)): 5.5 µM; IC50 ([1]; IC50 0.02% Tween-20 − (absence)): 1.3 µM; IC50 ([1]; IC50 nsp13): 11 µM
CO/N=C(\C(=O)N[C@@H]1C(=O)N2C(C(=O)O)=C(CSC(=O)c3ccco3)CS[C@H]12)c1csc(N)n1 [Ceftiofur HCl] | – | – | > 250 | > 250 | –
COc1cccc2c1C(=O)c1c(O)c3c(c(O)c1C2=O)C[C@@](O)(C(=O)CO)C[C@@H]3O[C@H]1C[C@H](N)[C@H](O)[C@H](C)O1 [Doxorubicin] | Artifact | Artifact | – | – | –
COc1cc2c(cc1Cc1cccc(Cl)c1F)c(=O)c(C(=O)O)cn2[C@H](CO)C(C)C [Elvitegravir] | – | – | > 250 | 22 | nsp13 inhibition and detergent sensitivity [1]: clear inhibition only in the absence of detergent
COC(=O)[C@@H]1CC2=CC(=O)CC[C@]2(C)[C@@]23O[C@@H]2C[C@@]2(C)[C@@H](CC[C@@]24CCC(=O)O4)[C@H]13 [Eplerenone] | No inhibition | – | – | > 250 | –
CC1(C)O[C@@H]2C[C@H]3[C@@H]4C[C@H](F)C5=CC(=O)C=C[C@]5(C)[C@@]4(F)[C@@H](O)C[C@]3(C)[C@]2(C(=O)CO)O1 [Fluocinolone Acetonide] | No inhibition | – | – | > 250 | –
COc1c2c3c4c(c(OC)c(=O)c5c(O)cc(OC)c(c6c(OC)cc(O)c(c1=O)c63)c54)[C@@H](C(C)=O)[C@@](C)(O)C2 [Hypocrellin A] | – | – | > 250 | 12 | nsp13 inhibition and detergent sensitivity [1]: clear inhibition only in the absence of detergent
CS(=O)(=O)c1cccc(C[C@H](NC(=O)c2c(Cl)cc3c(c2Cl)CCN(C(=O)c2ccc4ccoc4c2)C3)C(=O)O)c1 [Lifitegrast] | No inhibition | No inhibition | – | – | –
O=C1c2c(O)ccc(O)c2C(=O)c2c(NCCNCCO)ccc(NCCNCCO)c21 [Mitoxantrone] | Quenching | Quenching | – | – | –
CCCc1c2oc(C(=O)O)cc(=O)c2cc2c(=O)cc(C(=O)O)n(CC)c12 [Nedocromil] | No inhibition | No inhibition | – | – | –
O=C(N[C@H]1CCS[C@H]2CCC[C@@H](C(=O)O)N2C1=O)[C@@H](S)Cc1ccccc1 [Omapatrilat] | No inhibition | – | – | > 250 | –
CN1Cc2sccc2C(c2ccc(O)c(O)c2)C1 (centres unmarked) [SKF 89145] | No inhibition | No inhibition | – | – | –
Cc1cc(OCCCS(C)(=O)=O)cc(C)c1-c1cccc(COc2ccc3c(c2)OC[C@H]3CC(=O)O)c1 [TAK875, Fasiglifam] | – | – | 72 | 19 | nsp13 inhibition and detergent sensitivity [1]: clear inhibition only in the absence of detergent
